Drawing on ChEMBL document CHEMBL5376009 (RSC Med Chem, 2024), this text covers EC50 and CC50 for eleven compounds.

Data set [1] has as its system Influenza A virus. The data set can be described thus: Antiviral activity against influenza A virus A/WSN/1933 (H1N1) infected in MDCK cells assessed as reduction in cytopathic effect by fluorescence based analysis. In kind it is functional, organism-based.
A short description of data set [2]: Cytotoxicity against MDCK cells assessed as reduction in cell viability measured after 72 hrs by fluorescence based assay. Particulars: dog. In kind it is toxicity, Canis lupus familiaris.
Data set [3] concerns Influenza A virus. The data set can be described thus: Antiviral activity against Influenza A virus A (H1N1). The data set is classed as functional, organism-based.
Data set [4] is described as follows: Cytotoxicity against MDCK cells. In kind it is toxicity, cell-based, Canis lupus familiaris. Particulars: dog.
Data set [5] concerns Influenza A virus. Description: Antiviral activity against Influenza A virus A/California/7/2009 (H1N1) infected in MDCK cells measured after 24 hrs post infection. The data set is classed as functional, organism-based.
The subject of data set [6] is Influenza A virus. Description: Antiviral activity against Influenza A virus A/Perth/16/2009 (H3N2) infected in MDCK cells measured after 24 hrs post infection. The data set is classed as functional, organism-based.
Data set [7] has as its system Influenza B virus. The data set can be described thus: Antiviral activity against influenza B virus B/Florida/04/2006 infected in MDCK cells measured after 24 hrs post infection. The data set is classed as functional, organism-based. Particulars: B/Florida/04/2006, MDCK.
The nature of data set [8]: Cytotoxicity against MDCK cell incubated for 72 hrs by EZ-Cytox cell viability assay. In kind it is toxicity, cell-based, Canis lupus familiaris. Particulars: dog, MDCK cells.
Data set [9] is described as follows: Cytotoxicity against MDCK cells by MTS assay. In kind it is toxicity, cell-based, Canis lupus familiaris. Particulars: dog.
For data set [10], the system named is Influenza A virus. Description: Antiviral activity against influenza A virus A/Guangdong/1/2009 (H1N1) infected in MDCK cells by plaque assay. In kind it is functional, organism-based.
The test system of data set [11] is Influenza A virus. Description: Antiviral activity against influenza A virus A/PR/8/34 (H1N1) infected in MDCK cells by plaque assay. In kind it is functional, organism-based.
Data set [12] concerns Influenza A virus. Description: Antiviral activity against influenza A virus A/Aichi/2/68 (H3N2) infected in MDCK cells by plaque assay. In kind it is functional, organism-based.
The next data set deals with A549. Description: Cytotoxicity against human A549 cells by MTS assay. In kind it is functional. In general terms: Tetrazolium assays rely on reduction of a dye to a coloured formazan, in cell work by metabolically active cells.
The next data set deals with HEK-293T. Description: Cytotoxicity against human HEK293T cells by MTS assay. The data set is classed as functional.
In data set [13] the test system is Influenza A virus. The data set can be described thus: Antiviral activity against influenza A virus H1N1,A/WSN/1933 infected in MDCK cells assessed as reduction in plaque formation incubated for 72 hrs by crystal violet staining based analysis. The data set is classed as functional, organism-based. As to conditions: H1N1,A/WSN/1933, MDCK.
The subject of data set [14] is Influenza A virus. Description: Antiviral activity against influenza A virus H5N1,A/Vietnam/1194/2004 infected in MDCK cells assessed as reduction in plaque formation incubated for 72 hrs by crystal violet staining based analysis. The data set is classed as functional, organism-based. Particulars: H5N1,A/Vietnam/1194/2004, MDCK.
Data set [15] is described as follows: Cytotoxicity against MDCK cells assessed as reduction in cell viability measured after 72 hrs by MTT assay. The data set is classed as toxicity, cell-based, Canis lupus familiaris. Particulars: dog.
Data set [16] has as its system Influenza A virus. The data set can be described thus: Antiviral activity against influenza A virus A/Anhui/1/2005 (H5N1) infected in MDCK cells assessed as reduction in cytopathic effect incubated for 72 hrs by CPE assay. In kind it is functional, organism-based. A general note: Damage to the host cells serves as the signal in cytopathic effect assays.
Data set [17] in a line: Cytotoxicity against MDCK cells assessed as reduction in cell viability measured after 72 hrs by CCK8 assay. In kind it is toxicity, cell-based, Canis lupus familiaris. Particulars: dog.
The subject of data set [18] is Influenza A virus. Description: Antiviral activity against Influenza A virus A/PR/8/34 (H1N1). The data set is classed as functional, organism-based.
For data set [19], the system named is Influenza A virus. Description: Antiviral activity against Influenza A virus A/Brisbane/10/2007 (H3N2). The data set is classed as functional, organism-based.
Data set [20] concerns Influenza B virus. The data set can be described thus: Antiviral activity against Influenza B virus B/Yamagata. The data set is classed as functional, organism-based.
The test system of data set [21] is Influenza B virus. The data set can be described thus: Antiviral activity against Influenza B virus B/Victoria. The data set is classed as functional, organism-based.
In data set [22] the test system is Influenza A virus. Description: Antiviral activity against influenza A virus A/WSN/1933 (H1N1) infected in HEK293T cells assessed as reduction in cytopathic effect incubated for 24 hrs. The data set is classed as functional, organism-based. As to conditions: HEK-293T.
Data set [23] deals with Influenza B virus. The data set can be described thus: Antiviral activity against influenza B virus infected in HEK293T cells assessed as reduction in cytopathic effect incubated for 24 hrs. In kind it is functional, organism-based. Particulars: HEK-293T.
The nature of data set [24]: Cytotoxicity against MDCK cells assessed as reduction in cell viability measured after 48 hrs by CCK-8 assay. The data set is classed as toxicity, cell-based, Canis lupus familiaris. Particulars: dog.
In data set [25] the test system is Influenza A virus. Description: Antiviral activity against Influenza A virus A/PR/8/34 (H1N1) infected in human A549 cells pretreated with cell for 3 hrs followed by viral infection and measured for 24 hrs. The data set is classed as functional, organism-based.
Data set [26] in a line: Cytotoxicity against human A549 cells incubated for 48 hrs by neutral red uptake assay. In kind it is toxicity, cell-based.

The EC50 is the midpoint of the concentration-response curve. For orientation: CC50 means the concentration giving 50% cytotoxicity. For `CCCCN1Cc2ccccc2Oc2ccccc2S1(=O)=O`, the concentration for a half-maximal effect (EC50) with Influenza A virus [1] was determined as 0.38 µM. In data set [2], the CC50 at 72 h was more than 100 µM.

Turning to `C=C1Cc2cc(C(F)(F)F)ccc2C(=O)NCC(C)(C)/C(=N/OC)CCCCOC1=O`, the EC50 in the data set on Influenza A virus [3] was 2.3 µM. For the same compound, the CC50 in data set [4] was found to be 211 µM.

In the case of `COc1ccccc1-c1cc2c(Nc3ccccc3)nccc2n1C`, the EC50 was found to be 1.17 µM in the data set with Influenza A virus [5], 8.29 µM in the data set on Influenza A virus [6] and 12.9 µM with Influenza B virus [7]. The compound further had a CC50 at 72 h in [8] of 27.2 µM.

Regarding `O=C(NC1CCCCCC1)c1cc2c(s1)-c1ccsc1CC2`, the CC50 (in [9]; with A549; with HEK-293T) was more than 100 µM in each case. Further, the EC50 with Influenza A virus [10] is 1.14 µM; with Influenza A virus [11] it was 1.03 µM; in the data set with Influenza A virus [12] it was 0.41 µM.

Turning to `CCc1ccccc1N(CC(=O)Nc1cc(C)cc(C)c1)S(C)(=O)=O`, the EC50 was 0.007 µM with Influenza A virus [13] and 0.086 µM in the data set on Influenza A virus [14]. Moreover, the CC50 at 72 h in data set [15] was more than 100 µM.

With `Cc1cc(C(=O)NC(C)C23CC4CC(CC(C4)C2)C3)c(C)o1` (centres undefined), the concentration for a half-maximal effect (EC50) was determined as 0.069 µM in the data set with Influenza A virus [13] and 0.08 µM in the data set on Influenza A virus [14]. Besides, the CC50 at 72 h in data set [15] amounted to 73 µM.

Take `CCCC(=O)c1c(O)c(CC2=C(O)C(C)(C)C(O)=C(C(C)=O)C2=O)c(O)c(Cc2c(O)c(CC3=C(O)C(C)(C)C(O)=C(C(C)=O)C3=O)c(O)c(C(=O)CCC)c2O)c1O`: the EC50 in the data set with Influenza A virus [16] was found to be 16.6 µM. Further, the CC50 at 72 h in data set [17] is more than 400 µM.

For `CN(C)S(=O)(=O)N1CCCC(CNC(=O)c2cccc(C(F)(F)F)c2)C1` (centres undefined), the 50% effective concentration (EC50) in the data set with Influenza A virus [1] amounted to 0.28 µM. For the same compound, the cytotoxic concentration (CC50) at 72 h in data set [2] was more than 100 µM.

On to `COc1cccc(OC)c1C(=O)/C=C/c1nc(C)c(C)nc1C`, for which, in data set [4], the CC50 turned out to be 41.5 µM. Also, the EC50 in the data set on Influenza A virus [18] turned out to be 2.74 µM; in the data set on Influenza A virus [19], 3.44 µM; in the data set with Influenza B virus [20] it was 2.41 µM; with Influenza B virus [21] it was 3.13 µM.

With `C/C(=C\CC/C(C)=C/C[C@]1(O)C(=O)c2c(O)cc(C)c3c(O)c(C)c(O)c(c23)C1=O)CC/C=C(\CO)CC[C@@H](O)C(C)(C)O`, the EC50 in the data set with Influenza A virus [22] amounted to 0.28 µM; in the data set with Influenza B virus [23], 1.22 µM. For the same compound, the CC50 at 48 h in data set [24] is more than 100 µM.

Turning to `O=C(CSc1nnnn1-c1ccccc1)NCc1ccccc1`, in the data set on Influenza A virus [25], the EC50 was found to be 46.4 µM. Besides, in [26], the CC50 at 48 h is more than 150 µM.
